The source of these data is US20190351019A1, “STEROID ADMINISTRATION AND IMMUNOTHERAPY” (Intrexon Corporation, priority 2016, published 2019).

The assay is described as follows: Infusion of CAR-T cells followed by prednisone in a B-ALL patient: GVHD course and blood counts (case report). The format is in vivo, human. The settings on record: about 1 mg/kg starting day 14; on day 18 (or Day 48 since administration of CAR-T cells); dose then reduced to about 0.5 mg/kg. As to the method: A person was diagnosed with B-cell acute lymphoblastic leukemia (B-ALL). […] Multiple salvage therapies were given. POMP maintenance therapy was subsequently started. The patient further developed graft-versus-host disease GVHD and was treated with prednisone and tacrolimus. Additional radiation therapy (XRT), immunotherapy, hyperCAVD and O-EPOCH were further administered to the patient. Further, lymphodepletion was induced in the patient with cyclophosphamide at 500 mg/m^2 and fludarabine at 30 mg/m^2 for 3 days. Following lymphodepletion, 10^6 CAR-T cells/kg were infused into the patient on day 0. […] About 1 mg/kg of prednisone was administered starting day 14. […] White blood cell count (WBC) was 2.7 and absolute lymphocyte count (ALC) was 200.

For `C[C@]12C=CC(=O)C=C1CC[C@@H]1[C@@H]2C(=O)C[C@@]2(C)[C@H]1CC[C@]2(O)C(=O)CO` [prednisone], the “outcome of GVHD under prednisone” value is reported as “GVHD was resolved”.
